According to US20240270821A1, “GIP/GLP1/GCG TRI-RECEPTOR AGONISTS AND USES THEREOF” (priority 2023, published 2024):
Starred links: 1 amine or outer side, 2 acyl side, 3 side chain; linkers in the order of their positions; H or OH if unused. Non-standard residues stand in square brackets, D forms with d. Groups on a side chain read outwards from the residue. *: point of attachment. C18 diacid = O=C(O)CCCCCCCCCCCCCCCCC(=O)*; γGlu = O=C(O)[C@H](CCC(=O)[*:2])N[*:1]; 4Pal = N[C@@H](Cc1ccncc1)C(=O)O; αMeL = CC(C)C[C@](C)(N)C(=O)O; Orn = NCCC[C@H](N)C(=O)O; AEEA = NCCOCCOCC(=O)O; Aib = CC(C)(N)C(=O)O

Assays:
[1] = target: T1, hGIPR (Homo sapiens, UniProt P48546); assay: Functional cAMP activity in the presence of 1% HSA; type: cell-based; conditions: read-out: cAMP Rel EC50, hGIPR
T1 sequence (P48546 22-466): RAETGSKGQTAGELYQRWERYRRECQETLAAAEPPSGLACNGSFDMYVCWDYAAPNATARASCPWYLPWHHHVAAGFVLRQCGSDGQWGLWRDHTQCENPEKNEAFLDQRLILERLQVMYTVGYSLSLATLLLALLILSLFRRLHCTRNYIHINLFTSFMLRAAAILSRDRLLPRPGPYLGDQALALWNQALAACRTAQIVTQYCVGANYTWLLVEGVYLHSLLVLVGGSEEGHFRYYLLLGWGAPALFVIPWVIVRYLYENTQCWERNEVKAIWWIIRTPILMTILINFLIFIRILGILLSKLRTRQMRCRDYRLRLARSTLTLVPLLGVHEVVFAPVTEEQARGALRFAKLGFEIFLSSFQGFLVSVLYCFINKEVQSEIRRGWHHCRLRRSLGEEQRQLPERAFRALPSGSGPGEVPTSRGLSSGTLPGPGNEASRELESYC

[2] = target: T2, hGLP-1R (Homo sapiens, UniProt P43220); assay: Functional cAMP activity in the presence of 1% HSA; type: cell-based; conditions: read-out: cAMP Rel EC50, hGLP-1R
T2 sequence (P43220 24-463): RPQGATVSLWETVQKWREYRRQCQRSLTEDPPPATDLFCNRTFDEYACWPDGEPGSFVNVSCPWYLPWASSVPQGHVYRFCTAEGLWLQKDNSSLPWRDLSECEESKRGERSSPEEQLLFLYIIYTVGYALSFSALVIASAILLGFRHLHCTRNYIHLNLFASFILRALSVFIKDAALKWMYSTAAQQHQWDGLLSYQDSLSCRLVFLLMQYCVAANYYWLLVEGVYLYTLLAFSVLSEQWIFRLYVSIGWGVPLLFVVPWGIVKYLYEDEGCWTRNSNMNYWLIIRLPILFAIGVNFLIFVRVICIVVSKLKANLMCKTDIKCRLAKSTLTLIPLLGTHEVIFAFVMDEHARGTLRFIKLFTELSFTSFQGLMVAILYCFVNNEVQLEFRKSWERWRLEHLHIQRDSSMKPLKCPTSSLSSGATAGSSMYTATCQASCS

[3] = target: human GcgR (Homo sapiens, UniProt P47871); assay: Functional cAMP activity in the presence of 1% HSA; type: cell-based; conditions: read-out: cAMP Rel EC50, hGcgR
Sequence of human GcgR (P47871 26-477): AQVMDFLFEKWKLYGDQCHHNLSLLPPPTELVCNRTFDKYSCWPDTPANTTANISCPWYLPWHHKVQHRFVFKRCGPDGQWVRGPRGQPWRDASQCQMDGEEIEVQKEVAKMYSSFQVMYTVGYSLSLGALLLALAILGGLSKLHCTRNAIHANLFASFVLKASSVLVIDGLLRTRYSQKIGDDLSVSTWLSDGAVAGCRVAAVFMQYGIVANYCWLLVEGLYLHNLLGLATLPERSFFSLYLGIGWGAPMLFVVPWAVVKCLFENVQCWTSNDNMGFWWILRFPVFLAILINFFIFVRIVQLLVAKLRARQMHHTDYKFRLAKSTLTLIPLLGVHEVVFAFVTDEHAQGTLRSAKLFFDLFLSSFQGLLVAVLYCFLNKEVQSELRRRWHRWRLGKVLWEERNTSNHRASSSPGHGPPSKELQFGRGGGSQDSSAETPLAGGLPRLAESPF

[4] = target: T1, hGIPR; assay: Functional cAMP activation in the presence of 0.1% casein (no HSA); type: cell-based; conditions: in the presence of 0.1% casein (no HSA); geometric mean; read-out: Relative cAMP EC50, hGIPR;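 on Relative cAMP EC50, hGIPR: intracellular cAMP rise after 30 min at 37 °C read by HTRF against a standard curve, scaled between buffer alone (0%) and top control ligand concentration (100%), four-parameter fit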;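 on Relative cAMP EC50, hGLP-1R: intracellular cAMP rise after 30 min at 37 °C read by HTRF, normalized between buffer only (0%) and maximal control ligand (100%), four-parameter variable-slope fit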;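 on Relative cAMP EC50, hGcgR: intracellular cAMP rise after 30 min at 37 °C, read by HTRF against a cAMP standard curve, scaled from buffer only (0%) to maximal control ligand response (100%)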
[5] = target: T2, hGLP-1R; assay: as above; type: cell-based; conditions: in the presence of 0.1% casein (no HSA); geometric mean; read-out: Relative cAMP EC50, hGLP-1R
[6] = target: hGcgR (Homo sapiens, UniProt P47871); assay: as above; type: cell-based; conditions: in the presence of 0.1% casein (no HSA); geometric mean; read-out: Relative cAMP EC50, hGcgR;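 further: intracellular cAMP rise after 30 min at 37 °C, read by HTRF against a cAMP standard curve, scaled from buffer only (0%) to maximal control ligand response (100%)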
Sequence of hGcgR (P47871 26-477): as above

[7] = target: human GLP1-R (Homo sapiens, UniProt P43220); assay: GLP1-R internalization assay in HEK293 cells; type: cell-based; conditions: for EC50: HEK293 cells expressing SNAP-GLP-1R, read-out: GLP1R Internalization EC50; for Internalization % TOP: normalized to maximum concentration of GLP-1 (100%)
Sequence of human GLP1-R (P43220 24-463): as the sequence (P43220 24-463) above

[8] = test system: Intestinal organoid from Göttingen minipig jejunum tissue, 2D monolayer; assay: Cell based in vitro permeability (Papp) assay; type: in vitro ADME
Outline: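 Papp calculated from LC/MS peptide levels in apical and basal compartments. Basal sampling at 20 min with C10 present, across monolayers grown from dissociated minipig jejunal organoids in transwells.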

Row | Molecule | EC50 [1] [nM] | EC50 [2] [nM] | EC50 [3] [nM] | EC50 [4] [nM] | EC50 [5] [nM] | EC50 [6] [nM] | EC50 [7] [nM] | Internalization % TOP [7] [%] | Relative Papp (Compared to internal standard) [8]
1 | H-Y[Aib]QGTFTSDFS[Orn][αMeL]LDKK([AEEA-γGlu-C18 diacid])AQ[Aib]AFIEYLLE[dA]GPSSGAPPPSGS-NH2 [Example 209] | 23.3 | 276 | 433 | 0.129 | 1.78 | 3.08 | 83.1 | 41.2 | 0.08
2 | H-Y[Aib]QGTFTSDFS[Orn][αMeL]LDKK([γGlu-AEEA-γGlu-C18 diacid])AQ[Aib]AFIEYLLE[Aib]GPSSGAPPPSGS-NH2 [Example 193] | 12.7 | 473 | 1120 | 0.0609 | 5.19 | 4.51 | 132 | 50.7 | 0.17
3 | H-Y[Aib]QGTFTSD[4Pal]SR[αMeL]LDKK([AEEA-γGlu-C18 diacid])AQ[Aib]AFIEYLIE[Aib]GESSGAPPPSGS-NH2 [Example 187] | 15.6 | 178 | 2970 | 0.111 | 1.11 | 14.8 | 17.2 | 57 | 0.48
4 | H-Y[Aib]QGTFTSDFS[Orn][αMeL]LDKK([AEEA-γGlu-C18 diacid])AQ[Aib]AFIEYLLE[Aib]GPSS[Aib]APPPSGS-NH2 [Example 238] | 8.78 | 262 | 334 | 0.0909 | 2.71 | 2.78 | 32.1 | 38.2 | 0.06
5 | CC[C@H](C)[C@H](NC(=O)[C@H](Cc1ccccc1)NC(=O)[C@H](C)NC(=O)C(C)(C)NC(=O)[C@H](CCC(N)=O)NC(=O)[C@H](C)NC(=O)[C@H](CCCCNC(=O)COCCOCCNC(=O)CC[C@H](NC(=O)CCCCCCCCCCCCCCCCC(=O)O)C(=O)O)NC(=O)[C@H](CCCCN)NC(=O)[C@H](CC(=O)O)NC(=O)[C@H](CC(C)C)NC(=O)[C@](C)(CC(C)C)NC(=O)[C@H](CCCN)NC(=O)[C@H](CO)NC(=O)[C@H](Cc1ccccc1)NC(=O)[C@H](CC(=O)O)NC(=O)[C@H](CO)NC(=O)[C@@H](NC(=O)[C@H](Cc1ccccc1)NC(=O)[C@@H](NC(=O)CNC(=O)[C@H](CCC(N)=O)NC(=O)C(C)(C)NC(=O)[C@@H](N)Cc1ccc(O)cc1)[C@@H](C)O)[C@@H](C)O)C(=O)N[C@@H](CCC(=O)O)C(=O)N[C@@H](Cc1c[nH]c2ccccc12)C(=O)N[C@@H](CC(C)C)C(=O)N[C@@H](CC(C)C)C(=O)N[C@@H](CCC(=O)O)C(=O)NCC(=O)NCC(=O)N1CCC[C@H]1C(=O)N[C@@H](CO)C(=O)N[C@@H](CO)C(=O)NCC(=O)N[C@@H](C)C(=O)N1CCC[C@H]1C(=O)N1CCC[C@H]1C(=O)N1CCC[C@H]1C(=O)N[C@@H](CO)C(=O)NCC(=O)N[C@@H](CCC(=O)O)C(N)=O [Example 119] | 19.7 | 387 | 839 | 0.179 | 3.67 | 5.6 | 73.5 | 43.4 | 0.15
6 | H-Y[Aib]QGTFTSDFS[Orn][αMeL]LDKK([AEEA-γGlu-C18 diacid])AQ[Aib]AFIEYLLE[dA]GPSSGAPPPSG[4Pal]-NH2 [Example 211] | 20.6 | 234 | 370 | 0.116 | 1.23 | 2.05 | 57.4 | 26.9 | 0.06
7 | H-Y[Aib]QGTFTSD[4Pal]S[Orn][αMeL]LDKK([AEEA-γGlu-C18 diacid])AQ[Aib]AFIEYLLAGGPSSGEPPPSGS-NH2 [Example 154] | 29.7 | 569 | 1040 | 0.227 | 4.94 | 8.72 | 47.7 | 65.9 | 0.12
